# Measurements from PubChem BioAssay (NCI).
#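 Exposure lasted 48 hours, with cells grown in 96-well plates and compounds tested at five concentrations. TGI marks complete inhibition of growth.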 Where a SMILES comes first, the peptide text is derived from it. [ ]: non-standard residue; d: D form. The star is where a group is joined. Bn2Val = CC(C)[C@@H](C(=O)*)N(Cc1ccccc1)Cc1ccccc1; NH(4-F-benzyl) = Fc1ccc(CN*)cc1; NMeV = CN[C@H](C(=O)O)C(C)C; dNMeA = CN[C@H](C)C(=O)O
# What was measured:
# Assay in all cases: DTP human tumour cell line panel, 48 h
# IGROV1 ovarian = system: IGROV1 ovarian
# OVCAR-5 ovarian = system: OVCAR-5 ovarian
# RPMI-8226 leukemia = system: RPMI-8226 leukemia
# A498 renal = system: A498 renal
# COLO 205 colon = system: COLO 205 colon
# SW-620 colon = system: SW-620 colon
# SK-MEL-2 melanoma = system: SK-MEL-2 melanoma
# OVCAR-8 ovarian = system: OVCAR-8 ovarian
# NCI-H460 lung = system: NCI-H460 lung
# SN12C renal = system: SN12C renal
# MOLT-4 leukemia = system: MOLT-4 leukemia
# OVCAR-3 ovarian = system: OVCAR-3 ovarian
# HCT-116 colon = system: HCT-116 colon
# HOP-92 NSCLC = system: HOP-92 NSCLC
# MDA-MB-231 breast = system: MDA-MB-231 breast
# LOX IMVI melanoma = system: LOX IMVI melanoma
# A549 NSCLC = system: A549 NSCLC
# MCF7 breast = system: MCF7 breast
# TK-10 renal = system: TK-10 renal
# 786-0 renal = system: 786-0 renal
# HCT-15 colon = system: HCT-15 colon
# NCI-H23 lung = system: NCI-H23 lung
# NCI-H226 lung = system: NCI-H226 lung
# UACC-62 melanoma = system: UACC-62 melanoma
# NCI-H522 lung = system: NCI-H522 lung
# SF-268 CNS = system: SF-268 CNS
# SF-295 CNS = system: SF-295 CNS
# SNB-19 CNS = system: SNB-19 CNS
# CCRF-CEM leukemia = system: CCRF-CEM leukemia
# K-562 leukemia = system: K-562 leukemia
# KM12 colon = system: KM12 colon
# HS 578T breast = system: HS 578T breast
# SF-539 CNS = system: SF-539 CNS
# MDA-MB-435 = system: MDA-MB-435
# U251 CNS = system: U251 CNS
# OVCAR-4 ovarian = system: OVCAR-4 ovarian
# BT-549 breast = system: BT-549 breast
# EKVX NSCLC = system: EKVX NSCLC
# SK-MEL-28 melanoma = system: SK-MEL-28 melanoma
# MDA-N = system: MDA-N
# DU-145 prostate = system: DU-145 prostate
# UACC-257 melanoma = system: UACC-257 melanoma
# ACHN renal = system: ACHN renal
# HL-60(TB) leukemia = system: HL-60(TB) leukemia
# SK-MEL-5 melanoma = system: SK-MEL-5 melanoma
# MALME-3M melanoma = system: MALME-3M melanoma
# SNB-75 CNS = system: SNB-75 CNS
# SR leukemia = system: SR leukemia
# T-47D breast = system: T-47D breast
# SK-OV-3 ovarian = system: SK-OV-3 ovarian
# UO-31 renal = system: UO-31 renal
# PC-3 prostate = system: PC-3 prostate
# HCC-2998 colon = system: HCC-2998 colon
# M14 melanoma = system: M14 melanoma
# RXF 393 renal = system: RXF 393 renal
# NCI/ADR-RES ovarian = system: NCI/ADR-RES ovarian
# HOP-62 NSCLC = system: HOP-62 NSCLC
# CAKI-1 renal = system: CAKI-1 renal
# HT29 colon = system: HT29 colon
smiles,measurement,setting,value
N#Cc1c(O)c(C=Nc2ccc(Cl)cc2)c(=O)n2c1[nH]c1ccccc12,TGI,IGROV1 ovarian,> 100 µM
same,TGI,OVCAR-5 ovarian,> 100 µM
same,TGI,RPMI-8226 leukemia,> 100 µM
same,TGI,A498 renal,> 100 µM
same,TGI,COLO 205 colon,> 100 µM
same,TGI,SW-620 colon,> 100 µM
same,TGI,SK-MEL-2 melanoma,> 100 µM
same,TGI,OVCAR-8 ovarian,> 100 µM
same,TGI,NCI-H460 lung,> 100 µM
same,TGI,SN12C renal,> 100 µM
same,TGI,MOLT-4 leukemia,> 100 µM
same,TGI,OVCAR-3 ovarian,> 100 µM
same,TGI,HCT-116 colon,> 100 µM
same,TGI,HOP-92 NSCLC,> 100 µM
same,TGI,MDA-MB-231 breast,> 100 µM
same,TGI,LOX IMVI melanoma,> 100 µM
same,TGI,A549 NSCLC,> 100 µM
same,TGI,MCF7 breast,> 100 µM
same,TGI,TK-10 renal,> 100 µM
same,TGI,786-0 renal,> 100 µM
same,TGI,HCT-15 colon,> 100 µM
same,TGI,NCI-H23 lung,> 100 µM
same,TGI,NCI-H226 lung,> 100 µM
same,TGI,UACC-62 melanoma,> 100 µM
same,TGI,NCI-H522 lung,> 100 µM
same,TGI,SF-268 CNS,> 100 µM
same,TGI,SF-295 CNS,> 100 µM
same,TGI,SNB-19 CNS,> 100 µM
same,TGI,CCRF-CEM leukemia,> 100 µM
same,TGI,K-562 leukemia,> 100 µM
same,TGI,KM12 colon,> 100 µM
same,TGI,HS 578T breast,> 100 µM
same,TGI,SF-539 CNS,> 100 µM
same,TGI,MDA-MB-435,> 100 µM
same,TGI,U251 CNS,> 100 µM
same,TGI,OVCAR-4 ovarian,> 100 µM
same,TGI,BT-549 breast,> 100 µM
same,TGI,EKVX NSCLC,> 100 µM
same,TGI,SK-MEL-28 melanoma,> 100 µM
same,TGI,MDA-N,> 100 µM
same,TGI,DU-145 prostate,> 100 µM
same,TGI,UACC-257 melanoma,> 100 µM
same,TGI,ACHN renal,> 100 µM
same,TGI,HL-60(TB) leukemia,> 100 µM
same,TGI,SK-MEL-5 melanoma,> 100 µM
same,TGI,MALME-3M melanoma,> 100 µM
same,TGI,SNB-75 CNS,> 100 µM
same,TGI,SR leukemia,> 100 µM
same,TGI,T-47D breast,> 100 µM
same,TGI,SK-OV-3 ovarian,> 100 µM
same,TGI,UO-31 renal,> 100 µM
same,TGI,PC-3 prostate,> 100 µM
same,TGI,HCC-2998 colon,> 100 µM
same,TGI,M14 melanoma,> 100 µM
same,TGI,RXF 393 renal,> 100 µM
same,TGI,NCI/ADR-RES ovarian,> 100 µM
same,TGI,HOP-62 NSCLC,> 100 µM
same,TGI,CAKI-1 renal,> 100 µM
same,TGI,HT29 colon,> 100 µM
CC(C)[C@H](NC(=O)[C@H](C(C)C)N(Cc1ccccc1)Cc1ccccc1)C(=O)N(C)[C@H](C(=O)N1CCC[C@H]1C(=O)N(C)[C@H](C)C(=O)NCc1ccc(F)cc1)C(C)C (Bn2Val-V[NMeV]P[dNMeA]-{NH(4-F-benzyl)}),TGI,IGROV1 ovarian,9.7 µM
same,TGI,OVCAR-5 ovarian,15.4 µM
same,TGI,RPMI-8226 leukemia,> 100 µM
same,TGI,A498 renal,6.71 µM
same,TGI,COLO 205 colon,3.28 µM
same,TGI,SW-620 colon,> 100 µM
same,TGI,SK-MEL-2 melanoma,4.03 µM
same,TGI,OVCAR-8 ovarian,> 51.5 µM
same,TGI,NCI-H460 lung,> 38.7 µM
same,TGI,SN12C renal,8.76 µM
same,TGI,MOLT-4 leukemia,> 20.8 µM
same,TGI,OVCAR-3 ovarian,9.92 µM
same,TGI,HCT-116 colon,8.82 µM
same,TGI,HOP-92 NSCLC,10.3 µM
same,TGI,MDA-MB-231 breast,11.2 µM
same,TGI,LOX IMVI melanoma,3.52 µM
same,TGI,A549 NSCLC,> 25.2 µM
same,TGI,MCF7 breast,7.32 µM
same,TGI,TK-10 renal,> 61.2 µM
same,TGI,786-0 renal,36.8 µM
same,TGI,HCT-15 colon,> 80.9 µM
same,TGI,NCI-H23 lung,32.5 µM
same,TGI,NCI-H226 lung,6.23 µM
same,TGI,UACC-62 melanoma,9.66 µM
same,TGI,NCI-H522 lung,7.61 µM
same,TGI,SF-268 CNS,10 µM
same,TGI,SF-295 CNS,13.6 µM
same,TGI,SNB-19 CNS,> 65.6 µM
same,TGI,CCRF-CEM leukemia,> 100 µM
same,TGI,K-562 leukemia,> 100 µM
same,TGI,KM12 colon,> 100 µM
same,TGI,HS 578T breast,24.7 µM
same,TGI,SF-539 CNS,7.99 µM
same,TGI,MDA-MB-435,> 31.9 µM
same,TGI,U251 CNS,> 25.6 µM
same,TGI,OVCAR-4 ovarian,> 47.4 µM
same,TGI,BT-549 breast,19.1 µM
same,TGI,EKVX NSCLC,18.4 µM
same,TGI,SK-MEL-28 melanoma,> 61.7 µM
same,TGI,MDA-N,27.9 µM
same,TGI,DU-145 prostate,> 100 µM
same,TGI,UACC-257 melanoma,> 47.4 µM
same,TGI,ACHN renal,20.6 µM
same,TGI,HL-60(TB) leukemia,5.52 µM
same,TGI,SK-MEL-5 melanoma,4.7 µM
same,TGI,MALME-3M melanoma,9.23 µM
same,TGI,SNB-75 CNS,> 37.5 µM
same,TGI,SR leukemia,4.65 µM
same,TGI,T-47D breast,> 83.9 µM
same,TGI,SK-OV-3 ovarian,> 100 µM
same,TGI,UO-31 renal,6.42 µM
same,TGI,PC-3 prostate,> 25.6 µM
same,TGI,HCC-2998 colon,12.8 µM
same,TGI,M14 melanoma,> 20.3 µM
same,TGI,RXF 393 renal,7.9 µM
same,TGI,NCI/ADR-RES ovarian,> 100 µM
same,TGI,HOP-62 NSCLC,39.4 µM
same,TGI,CAKI-1 renal,> 63.1 µM
same,TGI,HT29 colon,4.18 µM
